Patent US11878070B2, “Silk-based moisturizer compositions and methods thereof” (Evolved By Nature, Inc., priority 2015, dated 2024)

How the values were obtained:
Format in all cases: physicochemical
[1] = Silk gel formation (days to gelation / time to gel); details: 100 mg of vitamin C derivative in 15 mL of 2% silk solution
Excerpt: Samples 1-10 were used to examine the effect of silk to vitamin C ratio on serum gelation. Samples 1-3 with less vitamin C gelled quicker than samples 4 and 5. All other conditions were kept constant. Samples 6-8 with less vitamin C gelled quicker than samples 9 and 10. All other conditions were kept constant. It is concluded that decreasing the ratio of silk to vitamin C (increasing the amount of vitamin C) will lengthen the time to gel creation.
Samples 1, 3, 6, 8, O-1, O-2, O-3, and O-4 were used to examine the effect of temperature treatment on serum gelation time. Samples 1, 6, O-1, and O-2 were identical other than temperature treatment. Samples 3, 8, O-3, and O-4 were identical other than temperature treatment. The two groups differed in silk to vitamin C ratio. Time to serum gelation was directly related to temperature treatment with a higher temperature resulting in quicker serum gelation.
All treatments of silk solution for gel solution were in a conical tube at room temperature unless otherwise stated. […] Temperature affected gel creation time with higher temperatures resulting in quicker gel times. 50° C. treatment gelled in as quick as 2 days, 37° C. treatment gelled in as quick as 3 days, room temperature treatment gelled in 5-8 days and storage in a refrigerator took at least 39 days to gel. The effects of additives on gel creation were dependent on the additive. Vitamin E, Rosemary Oil and Rose Oil all had no effect on gel creation. […] Each also required the presence of vitamin C to gel. Lemon juice from a fresh lemon, pre-squeezed lemon juice from a plastic lemon container and lemon grass oil did affect gel creation. […] Both lemon juice types were able to cause gelation without the presence of vitamin C. This occurred in the same number of days as with vitamin C. The lemongrass oil was able to decrease the number of days to gelation to 2-3 days. Ail additives appeared soluble other than lemongrass oil and rose oil. Rose oil remained in yellow bubbles while the lemongrass oil was partially soluble and formed an albumen like chunk. […]

[2] = Dissolution of vitamin C derivative in aqueous silk solution
Excerpt: Ascorbyl tetraisopalmitate is a highly viscous, oil soluble liquid that might need the help of an emulsifier to possible dissolve in aqueous silk solution.

[3] = HPLC chromatograms of samples comprising vitamin C (degradation products); details: after 1 hour at ambient conditions without chemical stabilization
Method: No degradation products were visible.
No degradation products were visible. FIG. 59 is a table summarizing the vitamin C concentration in silk protein fragment-films (2% silk films air dried at RT) of the present disclosure. In FIG. 59 processing conditions included 100° C. extraction for 20 min, RT rinse, LiBr in 60° C. oven for 4-6 hours, FIG. 60 is a table summarizing the stability of vitamin C in chemically stabilized solutions. FIGS. 89A-89B are tables summarizing vitamin C stability in SPF gels without chemical stabilizers as compared to chemically stabilized vitamin C in competitive anti-aging skincare products. […] Without wishing to be bound by theory, it appears there is a relationship between vitamin C concentration, silk concentration, and gelation. An increase in vitamin C at a given concentration of silk will result in a longer time to gelation or inhibit gelation. This may be due to the vitamin C molecule physically blocking interaction between silk protein fragments or cross-linking of silk protein.

Row | time to gel formation [1] | Structure (SMILES) | other results
1 | 3 days | O=C1O[C@H]([C@@H](O)CO)C(O)=C1O[C@H]1O[C@H](CO)[C@@H](O)[C@H](O)[C@H]1O [Ascorbic acid-2-glucoside, Ascorbic Acid-2-Glucoside] | 
2 | 28 days | O=C1O[C@H]([C@@H](O)CO)C([O-])=C1OP(=O)([O-])[O-].[Na+].[Na+].[Na+] [Sodium ascorbyl phosphate from DSM, Sodium Ascorbyl Phosphate] | 

The remaining lines, values behind:

Row | Structure (SMILES) | time to gel formation [1] | other results
3 | CCCCCCCCC(CCCCCC)C(=O)OC[C@H](OC(=O)C(CCCCCC)CCCCCCCC)[C@H]1OC(=O)C(OC(=O)C(CCCCCC)CCCCCCCC)=C1OC(=O)C(CCCCCC)CCCCCCCC (some centres unmarked) [Ascorbyl tetraisopalmitate, Ascorbyl Tetraisopalmitate] |  | ability to dissolve or be dispersed in aqueous silk solution [2]: unable to dissolve or be dispersed
4 | O=C1O[C@H]([C@@H](O)CO)C([O-])=C1OP(=O)([O-])[O-].[Na+].[Na+].[Na+] [Sodium ascorbyl phosphate from Aromantic, Sodium Ascorbyl Phosphate] | failed to create a gel | 
5 | O=C1O[C@H]([C@@H](O)CO)C(O)=C1O [vitamin C, L-ascorbic acid] |  | degradation products (HPLC) [3]: degradation products are visible
